By GI50 is commonly meant the concentration giving 50% growth inhibition.

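Following 48 hours of exposure in 96-well plates, responses at five concentrations were used to interpolate endpoints linearly. GI50 is the concentration that inhibits growth by half.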 Activity calls are given as the source filed them. Rule as the data show it: active = GI50 up to about 1.1 µM and inactive = higher.

The values that follow come from ChEMBL document CHEMBL1201862, “PubChem BioAssay data set” (2004).

Among the test systems are SNB-19; OVCAR-5; HCC 2998; HOP-92; NCI-H522; OVCAR-4; NCI/ADR-RES; K562; HOP-62; SF-268; HCT-116; SF-539; SN12C; OVCAR-8; ACHN; CAKI-1; UO-31; IGROV-1; HL-60.
Holding throughout (experiment): DTP human tumour cell line panel, 48 h

In the case of `CC(=O)c1cc2sc3ccccc3c2[nH]1`, the GI50 in the assay on SNB-19, in the assay with OVCAR-5, in the assay on HCC 2998, in the assay with HOP-92, in the assay with NCI-H522 and in the assay with OVCAR-4 was > 100 µM (inactive) in each case. In addition, the GI50 in the assay with NCI/ADR-RES, in the assay on K562, in the assay with HOP-62, with SF-268, in the assay with HCT-116 and in the assay on SF-539 was > 100 µM (inactive) throughout. In addition, the GI50 is > 100 µM (inactive) in the assay on SN12C; 61.2 µM (inactive) in the assay on OVCAR-8; > 100 µM (inactive) in the assay on ACHN; > 100 µM (inactive) with CAKI-1; 56.4 µM (inactive) in the assay with UO-31.

For `COC(=O)c1cc2c3c(cc(N(C)C)c2[nH]1)N(C(=O)c1cc2cc(OC)c(OC)c(OC)c2[nH]1)CC3CCl` (centres undefined), the GI50 with SNB-19 is 0.00775 µM (active); in the assay on OVCAR-5, 0.00776 µM (active); with HCC 2998, 0.00948 µM (active); in the assay with HOP-92 it was 0.0041 µM (active); in the assay on NCI-H522, 0.00279 µM (active); with OVCAR-4, 0.00745 µM (active). Moreover, the GI50 with NCI/ADR-RES is 0.00392 µM (active); in the assay with K562, 0.00317 µM (active); with HOP-62 it was 0.00262 µM (active); in the assay on SF-268, 0.00374 µM (active); in the assay with IGROV-1, < 0.0025 µM (active); in the assay with HCT-116 it was < 0.0025 µM (active). Also, the GI50 in the assay on SF-539 was 0.00653 µM (active); with SN12C, 0.0114 µM (active); with ACHN, < 0.0025 µM (active); with CAKI-1, < 0.0025 µM (active); in the assay on UO-31 it was 0.00316 µM (active).

Turning to `CN(C)CCNC(=O)c1cccc2cc3cc(O)ccc3nc12`, the GI50 is 0.869 µM (active) with SNB-19; 1.46 µM (inactive) in the assay with OVCAR-5; 2.2 µM (inactive) with HCC 2998; 0.792 µM (active) in the assay with HOP-92; 2 µM (inactive) in the assay on OVCAR-4; 1.48 µM (inactive) in the assay on NCI/ADR-RES. Also, the GI50 in the assay on K562 is 1.43 µM (inactive); in the assay with HOP-62 it was 1.06 µM (active); in the assay with SF-268 it was 1.48 µM (inactive); with IGROV-1 it was 1.37 µM (inactive); in the assay with HCT-116 it was 0.558 µM (active); in the assay on SF-539, 1.11 µM (active). The GI50 in the assay on SN12C was 1.1 µM (active); in the assay on OVCAR-8, 0.796 µM (active); in the assay with HL-60, 0.355 µM (active); with CAKI-1, < 0.0499 µM (active); in the assay with UO-31, 1.12 µM (active).

On to `COC(=O)[C@]1(C)CCCn2c(=O)n(-c3ccccc3)c(=O)n21`, for which the GI50 in the assay with SNB-19, in the assay with OVCAR-5, with HCC 2998, with HOP-92, in the assay with NCI-H522 and in the assay on OVCAR-4 was > 100 µM (inactive) throughout. Moreover, the GI50 with NCI/ADR-RES, in the assay on K562, in the assay on HOP-62, in the assay on SF-268, in the assay with IGROV-1 and in the assay with HCT-116 was > 100 µM (inactive) each time. For the same compound, the GI50 in the assay with SF-539, with SN12C, in the assay with OVCAR-8, with ACHN, in the assay on CAKI-1 and in the assay on UO-31 was > 100 µM (inactive) each time.
